Experiment [1] has as its target T1, Histone deacetylase (Homo sapiens) (UniProt Q13547+O15379+Q9UBN7+Q92769+Q9UQL6+Q8WUI4+Q9BY41+Q96DB2+P56524+Q9UKV0+Q969S8). As to conditions: HeLa, at 0.1 µM.
Description: Inhibition of HDAC in human HeLa cells at 0.1 uM after 15 mins
For experiment [2], the target named is T1, Histone deacetylase (Homo sapiens). The note with it: HeLa, at 1 µM.
Description: Inhibition of HDAC in human HeLa cells at 1 uM after 15 mins
Experiment [3] shares this target. As to conditions: HeLa, at 10 µM.
Description: Inhibition of HDAC in human HeLa cells at 10 uM after 15 mins
For experiment [4], the target named is T2, Polyamine deacetylase HDAC10 (Homo sapiens, UniProt Q969S8).
T2 sequence (Q969S8 whole entry): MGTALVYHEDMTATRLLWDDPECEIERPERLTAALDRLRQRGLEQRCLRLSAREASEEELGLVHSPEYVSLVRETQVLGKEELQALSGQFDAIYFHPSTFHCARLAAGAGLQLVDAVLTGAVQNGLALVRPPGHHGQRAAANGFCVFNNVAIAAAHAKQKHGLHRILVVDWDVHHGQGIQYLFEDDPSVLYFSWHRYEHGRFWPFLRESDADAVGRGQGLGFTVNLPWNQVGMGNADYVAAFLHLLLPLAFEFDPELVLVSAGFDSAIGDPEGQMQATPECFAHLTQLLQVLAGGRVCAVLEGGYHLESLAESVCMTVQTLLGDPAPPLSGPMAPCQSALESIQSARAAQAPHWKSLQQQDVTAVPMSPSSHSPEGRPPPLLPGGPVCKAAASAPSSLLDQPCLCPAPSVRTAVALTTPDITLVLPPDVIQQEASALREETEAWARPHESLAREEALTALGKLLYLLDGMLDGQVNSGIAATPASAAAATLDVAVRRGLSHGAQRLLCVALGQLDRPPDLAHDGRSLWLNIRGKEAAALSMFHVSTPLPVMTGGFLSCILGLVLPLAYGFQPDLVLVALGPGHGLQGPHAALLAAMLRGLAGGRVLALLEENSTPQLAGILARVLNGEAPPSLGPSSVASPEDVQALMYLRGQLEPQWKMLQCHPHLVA
The experiment in a line: Inhibition of HDAC10.

Experiment [5] has as its target Histone deacetylase 2 (Homo sapiens, UniProt Q92769).
Experiment [6] has as its target Histone deacetylase 1 (Homo sapiens, UniProt Q13547). The experiment in a line: Inhibition of HDAC1.
In experiment [7] the target is Histone deacetylase 3 (Homo sapiens, UniProt O15379). The experiment in a line: Inhibition of HDAC3.
Histone deacetylase 3, sequence (O15379 whole entry): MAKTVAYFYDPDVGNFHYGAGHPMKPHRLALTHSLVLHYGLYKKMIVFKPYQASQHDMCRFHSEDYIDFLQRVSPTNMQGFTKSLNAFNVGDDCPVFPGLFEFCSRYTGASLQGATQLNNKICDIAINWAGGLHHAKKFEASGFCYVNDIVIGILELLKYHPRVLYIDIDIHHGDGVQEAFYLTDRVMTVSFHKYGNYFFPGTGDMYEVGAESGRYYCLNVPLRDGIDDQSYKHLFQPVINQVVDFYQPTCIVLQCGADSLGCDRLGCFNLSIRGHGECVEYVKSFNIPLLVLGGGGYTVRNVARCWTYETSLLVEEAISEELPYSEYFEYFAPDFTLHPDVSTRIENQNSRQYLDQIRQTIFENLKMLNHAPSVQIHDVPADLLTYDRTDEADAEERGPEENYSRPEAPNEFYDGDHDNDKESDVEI
For experiment [8], the target named is T3, Protein deacetylase HDAC6 (Homo sapiens, UniProt Q9UBN7).
T3 sequence (Q9UBN7 whole entry): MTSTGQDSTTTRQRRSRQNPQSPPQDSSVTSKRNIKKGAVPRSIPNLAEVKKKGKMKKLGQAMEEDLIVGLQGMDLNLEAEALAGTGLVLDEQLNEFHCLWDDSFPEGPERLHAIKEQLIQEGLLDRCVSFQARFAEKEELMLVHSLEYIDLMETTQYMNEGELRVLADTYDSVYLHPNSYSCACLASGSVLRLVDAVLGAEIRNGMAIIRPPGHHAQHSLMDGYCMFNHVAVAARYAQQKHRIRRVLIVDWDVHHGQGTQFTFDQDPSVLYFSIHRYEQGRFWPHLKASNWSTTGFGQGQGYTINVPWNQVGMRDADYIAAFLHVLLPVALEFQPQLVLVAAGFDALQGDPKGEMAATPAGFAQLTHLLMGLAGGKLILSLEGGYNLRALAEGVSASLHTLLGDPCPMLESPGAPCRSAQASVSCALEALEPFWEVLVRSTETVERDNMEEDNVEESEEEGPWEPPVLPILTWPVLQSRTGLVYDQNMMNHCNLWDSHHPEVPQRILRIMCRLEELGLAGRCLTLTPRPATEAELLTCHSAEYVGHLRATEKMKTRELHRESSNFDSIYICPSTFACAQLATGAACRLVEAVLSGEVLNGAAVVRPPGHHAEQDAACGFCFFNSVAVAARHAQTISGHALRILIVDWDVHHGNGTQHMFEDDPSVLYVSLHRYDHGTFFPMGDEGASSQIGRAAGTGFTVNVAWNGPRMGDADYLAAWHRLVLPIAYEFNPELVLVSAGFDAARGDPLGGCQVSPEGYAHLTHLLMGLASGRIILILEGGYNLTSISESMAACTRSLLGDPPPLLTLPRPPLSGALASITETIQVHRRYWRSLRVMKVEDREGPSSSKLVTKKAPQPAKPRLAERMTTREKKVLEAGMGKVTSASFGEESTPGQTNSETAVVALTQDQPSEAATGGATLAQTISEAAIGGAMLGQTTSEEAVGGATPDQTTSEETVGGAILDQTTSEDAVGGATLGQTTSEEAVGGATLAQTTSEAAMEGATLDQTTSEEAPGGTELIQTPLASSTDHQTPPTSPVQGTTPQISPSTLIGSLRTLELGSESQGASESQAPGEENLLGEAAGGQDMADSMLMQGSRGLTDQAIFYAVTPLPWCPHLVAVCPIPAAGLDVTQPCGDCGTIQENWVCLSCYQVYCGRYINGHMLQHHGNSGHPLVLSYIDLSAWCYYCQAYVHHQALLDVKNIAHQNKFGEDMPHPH
The experiment in a line: Inhibition of HDAC6.

Histone deacetylase 2, sequence (Q92769 whole entry): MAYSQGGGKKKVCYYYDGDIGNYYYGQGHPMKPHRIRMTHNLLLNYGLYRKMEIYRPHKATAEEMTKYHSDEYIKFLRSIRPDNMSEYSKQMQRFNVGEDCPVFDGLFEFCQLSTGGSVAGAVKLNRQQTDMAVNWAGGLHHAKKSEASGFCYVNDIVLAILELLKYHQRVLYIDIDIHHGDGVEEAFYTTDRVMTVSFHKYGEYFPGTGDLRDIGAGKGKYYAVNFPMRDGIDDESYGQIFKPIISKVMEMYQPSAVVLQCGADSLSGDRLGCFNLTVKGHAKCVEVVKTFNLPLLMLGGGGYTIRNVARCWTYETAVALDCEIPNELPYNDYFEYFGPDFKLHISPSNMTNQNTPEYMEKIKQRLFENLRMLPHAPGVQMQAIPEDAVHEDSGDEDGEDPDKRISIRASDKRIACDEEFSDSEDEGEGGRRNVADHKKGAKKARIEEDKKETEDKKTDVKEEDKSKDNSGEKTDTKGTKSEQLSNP
Histone deacetylase 1, sequence (Q13547 whole entry): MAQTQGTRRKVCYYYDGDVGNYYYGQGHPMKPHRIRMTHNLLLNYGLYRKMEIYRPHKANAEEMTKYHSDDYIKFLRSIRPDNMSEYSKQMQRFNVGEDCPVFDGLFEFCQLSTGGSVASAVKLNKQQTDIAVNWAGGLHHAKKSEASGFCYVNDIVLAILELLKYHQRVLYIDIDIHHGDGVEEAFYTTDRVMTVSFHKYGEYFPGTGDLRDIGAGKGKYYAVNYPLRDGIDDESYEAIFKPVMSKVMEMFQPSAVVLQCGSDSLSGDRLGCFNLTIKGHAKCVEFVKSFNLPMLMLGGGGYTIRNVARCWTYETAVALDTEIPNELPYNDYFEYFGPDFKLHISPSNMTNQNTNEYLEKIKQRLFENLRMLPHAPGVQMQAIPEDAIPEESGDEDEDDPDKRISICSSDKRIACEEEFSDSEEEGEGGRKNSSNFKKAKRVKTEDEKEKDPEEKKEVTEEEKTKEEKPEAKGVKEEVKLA

Turning to `O=C(CCCCc1cc(CS)no1)Nc1ccccc1`, the inhibition (in general, the percentage by which the read-out fell short of the control) is 4.5% in experiment [1], 22% in experiment [2] and 80% in experiment [3].

As for `O=C(CCCCc1cc(C(=O)NO)no1)Nc1ccccc1`, the IC50 (commonly the midpoint of a concentration-inhibition curve) in experiment [4] came to 9.05 µM; in experiment [5], 18.9 µM; in experiment [6], 4.95 µM; in experiment [7], 26.7 µM; in experiment [8], 0.43 µM. The inhibition in experiment [1] came out at 1.5%; in experiment [2], 26%; in experiment [3], 78.5%.

As to `O=C(CCCCc1cc(-c2ccccc2O)no1)Nc1ccccc1`, the inhibition in experiment [1], in experiment [2] and in experiment [3] was 0% throughout.

Consider `O=C(CCCCc1cc(/C=N/O)no1)Nc1ccccc1`, for which the figures for the inhibition in experiment [1], in experiment [2] and in experiment [3] were 0%, 0.75% and 7.5%, respectively.

In the case of `Nc1ccccc1-c1cc(CCCCC(=O)Nc2ccccc2)on1`, the inhibition in experiment [1] worked out at 0%; in experiment [2], 0%; in experiment [3] it was 0.5%.

With `O=C(CCCc1cc(C(=O)NO)no1)Nc1ccccc1`, the figures for the inhibition in experiment [1], in experiment [2] and in experiment [3] were 4.5%, 23.8% and 78.5%, respectively.

For the compound `O=C(CCCCC1CC(C(=O)NO)=NO1)Nc1ccccc1` (centres undefined), the IC50 came to 23.9 µM in experiment [4]; 36.2 µM in experiment [5]; 17.7 µM in experiment [6]; 28.1 µM in experiment [7]; 0.76 µM in experiment [8]. The values for the inhibition in experiment [1], in experiment [2] and in experiment [3] were 4%, 16.8% and 77%, respectively.

In the case of `NNC(=O)c1cc(CCCCC(=O)Nc2ccccc2)on1`, the inhibition stood at 0% in experiment [1], 0% in experiment [2] and 8% in experiment [3].

With `O=C(CCCCc1cc(C(=O)O)no1)Nc1ccccc1`, the inhibition in experiment [1] was 0%; in experiment [2], 0%; in experiment [3], 0.5%.

Turning to `Nc1cc(CCCCC(=O)Nc2ccccc2)on1`, the values for the inhibition in experiment [1], in experiment [2] and in experiment [3] were 4.5%, 0% and 0%, respectively.

For the compound `O=C(CCCCc1cc(CO)no1)Nc1ccccc1`, the inhibition in experiment [1], in experiment [2] and in experiment [3] was 0% in each case.

With `O=C(CCCC1CC(C(=O)NO)=NO1)Nc1ccccc1` (centres undefined), the inhibition came to 3.5% in experiment [1], 9.75% in experiment [2] and 56% in experiment [3].

Consider `O=C(CCCCc1cc(Cc2nn[nH]n2)no1)Nc1ccccc1`, for which the inhibition in experiment [1] worked out at 0%; in experiment [2] it was 0%; in experiment [3], 5%.

The values above are taken from ChEMBL document CHEMBL1240475, “Design and synthesis of novel isoxazole-based HDAC inhibitors” (Eur J Med Chem, 2010).
